Experimental data reported in patent US4223036A, “1-(1,3-Dioxolan-2-ylmethyl)-1H-1,2,4-triazoles” (Janssen Pharmaceutica N.V., priority 1979, dated 1980).

What was measured:
Candida albicans [1] = experiment: Activity against crop candidosis in turkeys (dose whereby crops of 50% of animals were completely negative); format: in vivo; conditions: medicated feed for 13 consecutive days
Description: Experiment B: Activity of Compounds (I) Against Crop Candidosis in Turkeys
Turkeys of 14 days old were infected in the crop with 4.10^6 Candida albicans cells, grown on Sabouraud broth for 48 hours at 37° C. and diluted with saline. The volume of the inoculum was 1 ml. The drug under investigation were premixed in 500 mg of lacton and thereafter admixed in 1000 g of meal without any additives. The concentration of the drug under investigation in the meal was expressed in mg/kg.
The animals were given the medicated feed for 13 consecutive days starting on the day of infection. At the end of the experiment all animals were sacrificed. At autopsy the crops were removed, emptied and grinded in an ultra-turrax mixer in 15 ml of sterile saline. Colony counting was done on Sabouraud agar and the results given in the Tables I, II and III represent the ED50, i.e., the dose of the drug whereby the crops of 50% of the animals were completely negative for Candida albicans.

Candida albicans [2] = experiment: Activity against vaginal candidosis in rats (lowest oral dose active at the 14th day after infection); format: in vivo, Female Wistar rats; design: lowest effective oral dose (vaginal candidosis in rats): unit not given here; conditions: oral once a day for two days, active at 14th day after infection; for lowest effective oral dose (vaginal candidosis in rats): Table I; for minimal effective dose: Candida albicans, 336 h
Description: Experiment A: Activity of Compounds (I) Against Vaginal Candidosis in Rats
Female Wistar rats of ±100 g body weight were used. They were ovariectomized and hysterectomized and after three weeks of recovery, 100 μg of oestradiol undecylate in sesame oil was given subcutaneously once a week for 3 consecutive weeks. The thus induced pseudooestrus was controlled by microscopic examination of vaginal smears. Food and water were left available ad libitum.
The rats were infected intravaginally with 8.10^5 cells of Candida albicans, grown on Sabouraud broth for 48 hours at 37° C. and diluted with saline. The date of infection varied from day +25 to day +32 after surgical intervention, depending on the appearance of signs of induced pseudo-oestrus.
The drugs under investigation were administered orally once a day for two days starting from the day of infection. For each experiment there were placebo treated controls. The results were assessed by taking vaginal smears with sterile swabs on several days after infection. The swabs were put into Sabouraud broth in petri-dishes and incubated for 48 hours a 37° C. If no growth of Candida albicans occured, i.e., when the animals were negative at the end of the experiment, this was due to drug administration because it never happened in placebo treated controls.
The Tables I, II and III below give the lowest oral dose of the drug under investigation which was found active at the 14th day after infection.

SMILES	ED50 (crop candidosis in turkeys) (Candida albicans [1]; Table I)	lowest effective oral dose (vaginal candidosis in rats) (Candida albicans [2])	further results
O=C(Nc1ccc(OC[C@H]2CO[C@](Cn3ccnc3)(c3ccc(Cl)cc3Cl)O2)cc1)c1ccc(Br)cc1 (relative stereo)	31 mg/kg of feed	10	–
COc1ccc(C(=O)Nc2ccc(OC[C@H]3CO[C@](Cn4ccnc4)(c4ccc(Cl)cc4Cl)O3)cc2)cc1 (relative stereo)	16 mg/kg of feed	40	–
O=C(Nc1ccc(OC[C@H]2CO[C@](Cn3ccnc3)(c3ccc(Cl)cc3Cl)O2)cc1)Oc1ccccc1 (relative stereo)	125 mg/kg of feed	10	–
Clc1ccc([C@@]2(Cn3ccnc3)OC[C@H](COc3ccc(N4CCOCC4)cc3)O2)c(Cl)c1 (relative stereo)	16 mg/kg of feed	2.5	–
Clc1ccc([C@@]2(Cn3ccnc3)OC[C@H](COc3ccc(N4CCNCC4)cc3)O2)c(Cl)c1 (relative stereo)	125 mg/kg of feed	5	–
CC(=O)N1CCN(c2ccc(OC[C@H]3CO[C@](Cn4ccnc4)(c4ccc(Cl)cc4Cl)O3)cc2)CC1 (relative stereo)	8 mg/kg of feed	2.5	–
CC(=O)Nc1cccc(OC[C@H]2CO[C@](Cn3ccnc3)(c3ccc(Cl)cc3Cl)O2)c1 (relative stereo) [3 (NHCOCH3), cis-N-{3-[2-(2,4-dichlorophenyl)-2-(1H-imidazol-1-ylmethyl)-1,3-dioxolan-4-ylmethoxy]phenyl}acetamide nitrate]	–	–	ED50 (crop candidosis in turkeys) (Candida albicans [1]; Table III): 63 mg/kg of feed; minimal effective dose (Candida albicans [2]; Table III): 10 mg/kg
CC(C)CN1CCN(c2ccc(OC[C@H]3CO[C@](Cn4cncn4)(c4ccc(Cl)cc4Cl)O3)cc2)CC1 (relative stereo) [CH2CH(CH3)2]	–	–	ED50 (crop candidosis in turkeys) (Candida albicans [1]; Table II): 31 mg/kg of feed; minimal effective dose (Candida albicans [2]; Table II): 2.5 mg/kg
CN1CCN(c2ccc(OC[C@H]3CO[C@](Cn4cncn4)(c4ccc(Cl)cc4Cl)O3)cc2)CC1 (relative stereo) [CH3]	–	–	ED50 (crop candidosis in turkeys) (Candida albicans [1]; Table II): 16 mg/kg of feed; minimal effective dose (Candida albicans [2]; Table II): 1.25 mg/kg
CCC(C)N1CCN(c2ccc(OC[C@H]3CO[C@](Cn4cncn4)(c4ccc(Cl)cc4Cl)O3)cc2)CC1 (relative stereo) [CH(CH3)CH2CH3]	–	–	ED50 (crop candidosis in turkeys) (Candida albicans [1]; Table II): 63 mg/kg of feed; minimal effective dose (Candida albicans [2]; Table II): 2.5 mg/kg
O=CN1CCN(c2ccc(OC[C@H]3CO[C@](Cn4cncn4)(c4ccc(Cl)cc4Cl)O3)cc2)CC1 (relative stereo) [CHO, cis-4-{4-[2-(2,4-dichlorophenyl)-2-(1H-1,2,4-triazol-1-ylmethyl)-1,3-dioxolan-4-ylmethoxy]phenyl}-1-piperazinecarboxaldehyde]	–	–	ED50 (crop candidosis in turkeys) (Candida albicans [1]; Table II): 16 mg/kg of feed; minimal effective dose (Candida albicans [2]; Table II): 1.25 mg/kg
CC(=O)N1CCN(c2ccc(OC[C@H]3CO[C@](Cn4cncn4)(c4ccc(Cl)cc4Cl)O3)cc2)CC1 (relative stereo) [COCH3, cis-1-acetyl-4-{4-[2-(2,4-dichlorophenyl)-2-(1H-1,2,4-triazol-1-ylmethyl)-1,3-dioxolan-4-yl-methoxy]phenyl}piperazine]	–	–	ED50 (crop candidosis in turkeys) (Candida albicans [1]; Table II): 8 mg/kg of feed; minimal effective dose (Candida albicans [2]; Table II): 1.25 mg/kg
Nc1ccc(OC[C@H]2CO[C@](Cn3ccnc3)(c3ccc(Cl)cc3Cl)O2)cc1[N+](=O)[O-] (relative stereo) [Example 4-NH2, cis-4-[2-(2,4-dichlorophenyl)-2-(1H-imidazol-1-ylmethyl)-1,3-dioxolan-4-ylmethoxy]-2-nitrobenzenamine]	–	–	ED50 (crop candidosis in turkeys) (Candida albicans [1]; Table III): 31 mg/kg of feed; minimal effective dose (Candida albicans [2]; Table III): 5 mg/kg
S=C=Nc1ccc(OC[C@H]2CO[C@](Cn3ccnc3)(c3ccc(Cl)cc3Cl)O2)cc1 (relative stereo) [NCS, cis-1-[2-(2,4-dichlorophenyl)-4-(4-isothiocyanatophenoxymethyl)-1,3-dioxolan-2-ylmethyl]-1H-imidazole]	125 mg/kg of feed	5	–
Nc1ccc(OC[C@H]2CO[C@](Cn3ccnc3)(c3ccc(Cl)cc3Cl)O2)cc1 (relative stereo) [NH2, cis-4-[2-(2,4-dichlorophenyl)-2-(1H-imidazol-1-ylmethyl)-1,3-dioxolan-4-ylmethoxy]benzenamine]	125 mg/kg of feed	5	–
CCNc1ccc(OC[C@H]2CO[C@](Cn3ccnc3)(c3ccc(Cl)cc3Cl)O2)cc1 (relative stereo) [NHCH2CH3, cis-4-[2-(2,4-dichlorophenyl)-2-(1H-imidazol-1-ylmethyl)-1,3-dioxolan-4-ylmethoxy]-N-ethylbenzenamine]	31 mg/kg of feed	2.5	–
O=CNc1ccc(OC[C@H]2CO[C@](Cn3ccnc3)(c3ccc(Cl)cc3Cl)O2)cc1 (relative stereo) [NHCHO, cis-N-{4-[2-(2,4-dichlorophenyl)-2-(1H-imidazol-1-yl-methyl)-1,3-dioxolan-4-ylmethoxy]phenyl}formamide]	31 mg/kg of feed	2.5	–
CCC(=O)Nc1ccc(OC[C@H]2CO[C@](Cn3ccnc3)(c3ccc(Cl)cc3Cl)O2)cc1 (relative stereo) [NHCOC2 H5, cis-N-{4-[2-(2,4-dichlorophenyl)-2-(1H-imidazol-1-ylmethyl)-1,3-dioxolan-4-ylmethoxy]phenyl}propanaide ethanedioate. 2-propanolate]	31 mg/kg of feed	10	–
CC(=O)Nc1ccc(OC[C@H]2CO[C@](Cn3ccnc3)(c3ccc(Cl)cc3Cl)O2)cc1 (relative stereo) [NHCOCH3, cis-N-{4-[2-(2,4-dichlorophenyl)-2-(1H-imidazol-1-ylmethyl)-1,3-dioxolan-4-ylmethoxy]phenyl}acetamide]	31 mg/kg of feed	5	–
O=C(Nc1ccc(OC[C@H]2CO[C@](Cn3ccnc3)(c3ccc(Cl)cc3Cl)O2)cc1)C(Cl)Cl (relative stereo) [NHCOCH(Cl)2, cis-2,2-dichloro-N-{4-[2-(2,4-dichlorophenyl)-2-(1H-imidazol-1-ylmethyl)-1,3-dioxolan-4-ylmethoxy]phenyl}acetamide]	125 mg/kg of feed	10	–
CCNC(=O)Nc1ccc(OC[C@H]2CO[C@](Cn3ccnc3)(c3ccc(Cl)cc3Cl)O2)cc1 (relative stereo) [NHCONHC2 H5, cis-N-{4-[2-(2,4-dichlorophenyl)-2-(1H-imidazol-1-ylmethyl)-1,3-dioxolan-4-ylmethoxy]phenyl}-N'-ethylurea]	125 mg/kg of feed	10	–
CNC(=O)Nc1ccc(OC[C@H]2CO[C@](Cn3ccnc3)(c3ccc(Cl)cc3Cl)O2)cc1 (relative stereo) [NHCONHCH3, cis-N-{4-[2-(2,4-dichlorophenyl)-2-(1H-imidazol-1-ylmethyl)-1,3-dioxolan-4-ylmethoxy]phenyl}-N'-methylurea]	125 mg/kg of feed	10	–
CCOC(=O)Nc1ccc(OC[C@H]2CO[C@](Cn3ccnc3)(c3ccc(Cl)cc3Cl)O2)cc1 (relative stereo) [NHCOOC2 H5, cis-ethyl {4-[2-(2,4-dichlorophenyl)-2-(1H-imidazol-1-ylmethyl)-1,3-dioxolan-4-ylmethoxy]phenyl}carbamate]	16 mg/kg of feed	5	–
COC(=O)Nc1ccc(OC[C@H]2CO[C@](Cn3ccnc3)(c3ccc(Cl)cc3Cl)O2)cc1 (relative stereo) [NHCOOCH3, cis-methyl {4-[2-(2,4-dichlorophenyl)-2-(1H-imidazol-1-ylmethyl-1,3-dioxolan-4-ylmethoxy]phenyl}-carbamate nitrate]	31 mg/kg of feed	5	–
CCNC(=S)Nc1ccc(OC[C@H]2CO[C@](Cn3ccnc3)(c3ccc(Cl)cc3Cl)O2)cc1 (relative stereo) [NHCSNHC2 H5, cis-N-{4-[2-(2,4-dichlorophenyl)-2-(1H-imidazol-1-ylmethyl)-1,3-dioxolan-4-ylmethoxy]phenyl}-N'-ethylthiourea]	125 mg/kg of feed	5	–
